Test results as given in patent US20170122958A1, “Enzymes Functional Probes” (University of Dundee, priority 2013, published 2017).

Legend:
Test in all cases: ITC of compound into Brd2 tandem construct
Format in all cases: binding
[1] = target: T1, Brd2 tandem with mutations on both bromodomains (LA-LA) (Homo sapiens, UniProt P25440, L110A/L383A)
T1 construct: containing the first and the second bromodomain, as well as the natural linker between them; His6; SUMO (cleaved yes); made in house; host or cells: E. coli BL21(DE3)
Description: (§1) Tandem constructs of Brd2 with and without leucine to alanine mutations were expressed and purified for this last part of the project. […] Nevertheless, ITC experiments were performed with four of these constructs, a tandem with no mutation (WT-WT), a tandem with the mutation in the first bromodomain (LA-WT), a tandem with the mutation on the second bromodomain (WT-LA) and a tandem with mutations on both bromodomains (LA-LA). Normal titrations (compound into syringe, protein into sample cell) with compound 11 were performed for this assay. For the WT-WT construct, 300 μM of the compound was injected into a solution of the tandem at 10 μM. For the LA-WT and WT-LA constructs, the compound was injected at 150 μM into 15 μM of the protein and for the LA-LA construct, 150 μM compound was injected into a solution of 10 μM of this tandem construct. The ITC assays were run at 30° C. at 1% DMSO.
(§2) ITC experiments were carried out on a ITC200 instrument from MicroCal™ Experiments were conducted at 3 different temperatures 15° C., 25° C. and 30° C., while stirring at 1000 rpm. Buffers of proteins, peptide and compounds were matched to 20 mM HEPES pH 7.5 at 25° C. and 100 mM NaCl. Frozen protein was buffer exchanged as described for the DSF experiments. Each titration comprised 1 initial injection of 0.4 μl lasting 0.8 s, followed by 19 injections of 2 μl lasting 4 s each at 2 min intervals. The initial injection was discarded during data analysis. Standard and reverse titrations were conducted depending on the binding partners.
(§3) All the data was fitted to a single binding site model using the Microcal LLC ITC200 Origin software provided by the manufacturer to yield enthalpies of binding (ΔH) and binding constants (Kas). Further thermodynamic parameters were calculated from these values (changes in entropy ΔS, changes in free energy AG and dissociation constants (Kds)).

[2] = target: T2, Brd2 tandem with the mutation in the first bromodomain (LA-WT) (Homo sapiens, UniProt P25440, L110A)
T2 construct: containing the first and the second bromodomain, as well as the natural linker between them; His6; SUMO (cleaved yes); made in house; host or cells: E. coli BL21(DE3)
Description: as §1, §2, §3

[3] = target: T3, Brd2 tandem with no mutation (WT-WT) (Homo sapiens, UniProt P25440)
T3 construct: containing the first and the second bromodomain, as well as the natural linker between them; His6; SUMO (cleaved yes); made in house; host or cells: E. coli BL21(DE3)
Description: as §1, §2, §3

T3 sequence (P25440 71-455 limits assumed, change not shown): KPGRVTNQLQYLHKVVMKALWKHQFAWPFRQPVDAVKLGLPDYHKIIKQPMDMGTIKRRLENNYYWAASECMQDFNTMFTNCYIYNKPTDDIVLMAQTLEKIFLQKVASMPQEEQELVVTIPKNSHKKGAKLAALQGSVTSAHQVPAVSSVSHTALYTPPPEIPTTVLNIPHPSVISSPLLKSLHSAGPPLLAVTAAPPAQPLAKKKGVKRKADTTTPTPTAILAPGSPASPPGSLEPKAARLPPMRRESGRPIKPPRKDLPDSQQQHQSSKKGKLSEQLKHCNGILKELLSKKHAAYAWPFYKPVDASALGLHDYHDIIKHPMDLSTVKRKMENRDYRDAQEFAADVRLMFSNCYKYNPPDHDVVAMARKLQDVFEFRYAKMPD
T2 sequence (P25440 71-455 L110A limits assumed): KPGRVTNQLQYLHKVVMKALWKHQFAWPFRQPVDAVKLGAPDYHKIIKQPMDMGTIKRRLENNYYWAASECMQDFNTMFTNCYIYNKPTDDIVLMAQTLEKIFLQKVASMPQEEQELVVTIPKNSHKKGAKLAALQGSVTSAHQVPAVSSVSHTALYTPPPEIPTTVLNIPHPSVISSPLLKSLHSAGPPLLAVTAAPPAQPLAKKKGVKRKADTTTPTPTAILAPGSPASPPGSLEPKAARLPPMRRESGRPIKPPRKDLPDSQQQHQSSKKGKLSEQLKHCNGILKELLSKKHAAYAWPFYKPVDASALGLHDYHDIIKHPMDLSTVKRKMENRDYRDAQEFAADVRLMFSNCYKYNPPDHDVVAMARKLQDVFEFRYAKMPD
T1 sequence (P25440 71-455 L110A/L383A limits assumed): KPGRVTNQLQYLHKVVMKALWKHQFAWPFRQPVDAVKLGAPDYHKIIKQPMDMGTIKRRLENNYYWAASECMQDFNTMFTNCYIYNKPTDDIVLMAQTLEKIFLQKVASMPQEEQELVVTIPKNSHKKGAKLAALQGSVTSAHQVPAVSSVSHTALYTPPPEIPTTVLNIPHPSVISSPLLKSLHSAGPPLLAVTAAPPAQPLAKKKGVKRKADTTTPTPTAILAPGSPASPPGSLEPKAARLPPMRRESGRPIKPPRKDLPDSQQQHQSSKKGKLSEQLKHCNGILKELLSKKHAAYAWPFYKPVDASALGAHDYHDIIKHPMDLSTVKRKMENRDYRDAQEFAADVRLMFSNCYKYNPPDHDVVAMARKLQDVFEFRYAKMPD

CC[C@@H](C(=O)OC)[C@@H]1N=C(c2ccc(Cl)cc2)c2cc(OC)ccc2-n2c(C)nnc21 (racemic) [Compound 11, (+−)-methyl (R)-2-((S)-6-(4-chlorophenyl)-8-methoxy-1-methyl-4H-benzo[f][1,2,4]triazolo[4,3-a][1,4]diazepin-4-yl)butanoate]
Kd [1]: ~56 nM
Kd [2]: ~160 nM
Kd [3]: ~15800 nM
